Source: patent US7276050B2, “Trans-scleral drug delivery method and apparatus” (priority 2004, dated 2007)

Key:
[1] = cited from earlier work
[2] = Transmission electron microscopy of sclera after diffusion experiments; set-up: species or system human; conditions: after diffusion experiments with CAI in all three test solutions
Description: At the end of the trans-scleral diffusion experiments with CAI (DMSO 10%, 20%, and ethanol 10%) and 2ME2 (1% DMSO) the scleral tissue was fixed in 2.5% glutaraldehyde in 0.1 M sodium cacodylate buffer and prepared for transmission electron microscopy (TEM). The scleral tissue was bisected and postfixed in 2% osmium tetroxide for 2 hours. Small pieces of the sclera were embedded in low-viscosity epoxy medium, thin sectioned, stained with uranyl acetate and lead citrate, and viewed with a JEOL 100 CX transmission electron microscope. The micrographs were taken at X 2850.

[3] = Trans-scleral diffusion in 2 chamber perfusion apparatus (HPLC readout); type: in vitro ADME, human
Source text: Scleral tissue was obtained from 23 human donor eyes (Georgia Eye Bank, Atlanta) and was stored in moist chambers for 2-6 days post-mortem. The mean age at time of death (±SE) for the donor tissue used in this study was 52.4±4.4 years. Scleral tissue was dissected from the superotemporal quadrant of each eye to minimize associated structures that can modify scleral permeability such as vortex veins, posterior ciliary arteries, and anterior ciliary vessels. Uveal tissue and episclera were carefully removed using a cotton-tip applicator. The sclera was mounted horizontally in a 2 chamber acrylic perfusion apparatus (FIG. 1). The uveal surface was apposed to the lower flow-through hemi-chamber (volume 500 μL) containing balanced salt solution (BSS, Alcon laboratories, Ft. Worth, Tex.). The test solution was applied to the episcleral surface. Since CAI has a 423 Da molecular weight and the molecule is hydrophobic with a solubility of 1-10 μM in water, three different test solutions that contained carboxyamido-triazole were evaluated: CAI in 20% DMSO (80% BSS vol/vol) at a concentration (mean±SE) of 15.2±3.0 μM (solution A), CAI in 10% DMSO (90% BSS) at a concentration of 4.1±0.4 μM (solution B), and CAI in 10% ethanol (90% BSS) at a concentration of 3.3±0.2 μM (solution C).
The BSS in the lower hemi-chamber was perfused at a rate of 0.03 ml/min. The perfusion apparatus was placed on a magnetic stir plate and mixing in the lower hemi-chamber was achieved using a stir bar. The upper hemi-chamber containing the test compound was covered with parafilm and sealed with silicone grease to prevent evaporation. This also provided a flexible seal so that trans-scleral pressure would not be altered. The temperature of the apparatus was maintained at 37° C. by a water jacket with circulating water bath.
A physiologic pressure of 15 mm Hg was applied across the sclera by raising the height of the outflow tube of the receptor (lower-) chamber to 22 cm. A pressure transducer that was connected to the lower hemi-chamber verified the pressure. For all three solutions that contained carboxyamido-triazole 100 μl was applied to the episcleral side and samples of perfusate were collected at the uveal side of the sclera at time zero and at 30-minute intervals for the duration of 8 hours. The scleral permeability to CAI in a 10% ethanol solution was also evaluated over a longer period of 24 hours of which samples were taken hourly. For the 24 hours experiments 500 μl of the test solution was added to the upper hemi-chamber to minimize depletion of the drug on the donor side.
From each sample obtained from the trans-scleral diffusion experiments an aliquot of 100 μl was taken and the concentrations of CAI were monitored by reverse-phase high-performance liquid chromatography (HPLC). Results were calculated on the basis of peak areas. Samples were analyzed by using a Hewlett Packard HP1100 HPLC system equipped with a UV detector, an auto-sampler, a pump, and a HP Kayak workstation that controls the operation of HPLC and analyzes the data. A Zorbak Rx-C8 column (4.6×250 mm) was used for separation and detection was set at 260 nm. The flow rate employed was 1.0 ml/min with mobile phase of 55% acetonitrile and 45% water. The injection volume was 100 μl and retention time of CAI was about 7.8 minutes.
Steady state permeability constants were calculated from the data as: Ktrans=[Rtotal/(t)(A)]×1/[D]
Where Rtotal is the amount of drug in the receiver effluent per collected fraction, and t is the fraction collection time (in seconds). A is the area of exposed sclera (in square centimeters). This value—Rtotal/(t)(A)—is equal to the flux across the tissue. D is the concentration of drug in the donor hemi-chamber. Permeability thus represents the steady state flux normalized by donor concentration. The area of exposed sclera was 0.385 cm2. Mean steady state permeability values (±SE) were calculated from four to eight experiments performed for each compound.

[4] = tested on: hyperoxia-induced ocular neovascularization; experiment: Mouse pup model of hyperoxia-induced ocular neovascularization; type: in vivo
Source text: Testing of CAI in a mouse pup model of hyperoxia-induced ocular neovascularization, in which posterior retinal ischemia mediates of pathological angiogenesis, has confirmed that CAI is a potent inhibitor of ocular angiogenesis in this model.

[5] = mouse pup, hyperoxia-induced ocular neovascularization

Which results are given for `NC(=O)c1nnn(Cc2cc(Cl)c(C(=O)c3ccc(Cl)cc3)c(Cl)c2)c1N` [CAI, Carboxyamido-triazole]?
solubility in water [1]: 1 to 10 µM; scleral ultrastructure by TEM [2]: normal ultrastructure within the sclera; diffusion across the sclera [3]: diffused across the sclera effectively; time at which semi-steady state flux was observed ([3]; human, 3.3 μM): 13 h; time to reach steady state ([3]; human, 4.1 μM): 6 h; time to reach semi-steady state ([3]; human, 15.2 μM): approximately 5 hours; Papp at 8 h, 15.2 μM ([3]; solution A: 15.2 μM CAI in 20% DMSO (80% BSS), human sclera, 37° C., 15 mm Hg, n=4, read-out: permeability constant (mean±SE)): 2.8 ×10⁻⁶ cm/s; Papp at 8 h, 4.1 μM ([3]; solution B: 4.1 μM CAI in 10% DMSO (90% BSS), human sclera, n=7, read-out: permeability constant (mean±SE)): 5.5 ×10⁻⁶ cm/s; Papp at 24 h, 3.3 μM ([3]; solution C: 3.3 μM CAI in 10% EtOH (90% BSS), 24 hour sampling, human sclera, n=4, read-out: permeability constant (mean±SE)): 4.16 ×10⁻⁶ cm/s; intracellular bcl-2 (immunohistochemistry) ([4]; ischemic inner plexiform layer, mouse pup model): up regulation of intracellular bcl-2; formation of neovascular fronds [4, 5]: nearly completely abolished formation of neovascular fronds; regression of preformed neovascular fronds [4, 5]: dramatic and significant regression of preformed neovascular fronds
